The values that follow come from patent publication US7608629B2, “(Piperidinyloxy)phenyl, (piperidinyloxy)pyridinyl, (piperidinylsulfanyl)phenyl and (piperidinylsulfanyl)pyridinyl compounds as 5-HT1F agonists” (Eli Lilly and Company, priority 2003, dated 2009).

The structures appear in SMILES notation. Where a name gives a salt, the structure may show the parent alone.

The subject of the first data set is rabbit saphenous vein. The experiment in a line: Rabbit saphenous vein contraction.
Settings: not given
The protocol:
Representative compounds of the present invention were tested in a rabbit saphenous vein contraction assay to measure their ability to mediate vasoconstriction. […] The tips of two 30-gauge stainless steel hypodermic needles bent into an L-shape were slipped into the polyethylene tubing. Vessels were gently pushed from the cannula onto the needles. The needles were then separated so that the lower one was attached with thread to a stationary glass rod and the upper one was tied with thread to the transducer. […] An initial optimum resting force of 1 gm was applied to the saphenous vein. Isometric contractions were recorded as changes in grams of force on a Beckman Dynograph with Statham UC-3 transducers and microscale accessory attachments. Tissues were allowed to equilibrate 1 to 2 hours before exposure to drugs. Cumulative agonist concentration-response curves were generated in tissues and no tissue was used to generate more than two agonist concentration-response curves. […] This vasoconstriction assay measures two important parameters, saphenous vein contraction (EC50) and maximal contraction as a % maximal KCl response (% man KCl).
`CNS(=O)(=O)Cc1ccc2[nH]cc(CCN(C)C)c2c1` [sumatriptan]: the “corrected vasoconstriction EC50 (EC50 divided by %max KCl)” value was 10.3 nM.

The same data set, now with this note: Oryctolagus cuniculus.
As usually defined, the EC50 is the midpoint of the concentration-response curve. `CNS(=O)(=O)Cc1ccc2[nH]cc(CCN(C)C)c2c1` [sumatriptan] showed a concentration for a half-maximal effect (EC50) of 660 nM.

System in another data set: not given
Experiment: not given
Settings: not given
The melting point is the temperature, or range, at which the solid turns liquid. `CN1CCC(Oc2cccc(NC(=O)c3c(F)cccc3Cl)c2)CC1.Cl` had a melting point of 153 to 154 °C.
On the same count and under the same terms, the value for `CN1CCC(Oc2cccc(NC(=O)c3ccc(F)cc3Cl)c2)CC1.Cl` was 213 °C; that for `CC1CN(C)CCC1Oc1cccc(NC(=O)c2ccc(F)cc2Cl)n1.Cl` (stereo not drawn) was 155 to 160 °C.
Same read-out and setting: then `CCN1CCC(Oc2cccc(NC(=O)c3ccc(F)cc3Cl)c2)CC1.Cl`, with 91 °C.
Same read-out and setting: the value for `CCN1CCC(Oc2cccc(NC(=O)c3c(F)cccc3Cl)c2)CC1.Cl` was 262 °C (dec.); that for `CN1CCC(Oc2cccc(NC(=O)c3c(F)cc(F)cc3F)c2)CC1.Cl` was 136 °C (dec.); that for `CN1CCC(Oc2cccc(NC(=O)c3c(F)cccc3Cl)n2)CC1.Cl` was 139.6 °C.
`CN1CCC(Oc2cccc(NC(=O)c3ccccc3OC(F)(F)F)n2)CC1.Cl` came in with a melting point of 88.7 °C.
The compound `CN1CCC(Oc2cccc(NC(=O)c3ccccc3Br)n2)CC1.Cl` displayed a melting point of 104.3 °C.
Same read-out and setting: then `CN1CCC(Oc2cccc(NC(=O)c3c(F)cccc3F)n2)CC1.Cl`, with 261.4 °C; and `CN1CCC(Oc2cccc(NC(=O)c3ccc(F)c(F)c3F)n2)CC1.Cl`, with 182.4 °C (dec.).
The same measure, in the same setting: then `CN1CCC(Oc2cccc(NC(=O)c3cc(F)c(F)c(F)c3)n2)CC1.Cl`, with 171.4 °C (dec.); and `CN1CCC(Oc2cccc(NC(=O)c3ccccc3OC(F)(F)F)c2)CC1.Cl`, with 119 to 121 °C; and `CN1CCC(Oc2cccc(NC(=O)c3c(F)cc(F)cc3F)n2)CC1.Cl`, with 264 to 266 °C.
On the same count and under the same terms, the value for `CN1CCC(Oc2cccc(NC(=O)c3ccccc3C(F)(F)F)c2)CC1.Cl` was 135 to 136 °C.
Take `CN1CCC(Oc2cccc(NC(=O)c3cccnc3)c2)CC1.Cl`: the melting point is 73 to 74 °C.
The same measure, in the same setting: then `CN1CCC(Oc2cccc(NC(=O)c3ccncc3)c2)CC1.Cl`, with 172 to 175 °C; and `CN1CCC(Oc2cccc(NC(=O)C3CCCCC3)c2)CC1.Cl`, with 141 to 142 °C; and `CC(C)C(=O)Nc1cccc(OC2CCN(C)CC2)c1.Cl`, with 104 to 105 °C.
Still for that read-out and setting: the value for `CN1CCC(Oc2cc(NC(=O)c3ccccc3OC(F)(F)F)ccc2Cl)CC1.Cl` was 95 to 97 °C.
With `CN1CCC(Oc2cc(NC(=O)c3ccccc3Cl)ccc2Cl)CC1.Cl`, the melting point was 259 °C (dec.).
`CN1CCC(Oc2cc(NC(=O)c3ccccc3Br)ccc2Cl)CC1.Cl`: the melting point was in the range of 146 to 148 °C.
On the same count and under the same terms, the value for `CN1CCC(Oc2cc(NC(=O)c3c(F)cccc3F)ccc2Cl)CC1.Cl` was 261 °C (dec.).
As for `CN1CCC(Oc2cc(NC(=O)c3ccc(F)cc3F)ccc2Cl)CC1.Cl`, the melting point was 257 °C (dec.).
For `CN1CCC(Oc2cc(NC(=O)c3c(F)cccc3Cl)ccc2Cl)CC1.Cl`, the melting point was in the range of 259 to 260 °C.
Same read-out and setting: then `CN1CCC(Oc2cccc(NC(=O)c3ccccc3Br)c2)CC1.Cl`, with 269 °C (dec.); and `CN1CCC(Oc2cc(NC(=O)c3c(F)cc(F)cc3F)ccc2Cl)CC1.Cl`, with above 270 °C.
Same read-out and setting: the value for `CN1CCC(Oc2cc(F)cc(NC(=O)c3ccc(F)cc3)c2)CC1.Cl` was 150 °C; that for `CN1CCC(Oc2cccc(NC(=O)c3c(F)cccc3F)c2)CC1.Cl` was 136 to 138 °C; that for `CN1CCC(Oc2cccc(NC(=O)c3c(Cl)cccc3Cl)c2)CC1.Cl` was 170 to 171 °C.
Still for that read-out and setting: then `CN1CCC(Oc2cccc(NC(=O)c3ccc(Cl)cc3Cl)c2)CC1.Cl`, with 131 to 133 °C.
On to `CN1CCC(Oc2cccc(NC(=O)c3ccc(F)cc3)n2)CC1(C)C` (stereo not drawn) (as salt: salt), for which the melting point worked out at 145 °C.
On the same count and under the same terms, the value for `CN1CCC(Oc2cccc(NC(=O)c3ccc(F)cc3Cl)n2)CC1.Cl` (hydrate or solvate) was 135 to 137 °C; that for `CN1CCC(Oc2cccc(NC(=O)c3ccc(F)cc3)n2)CC1.Cl` (hydrate or solvate) was 203 to 205 °C.
On the same count and under the same terms, the value for `CN1CCC(Oc2cccc(NC(=O)c3ccc(F)cc3F)n2)CC1.Cl` (hydrate or solvate) was 269 to 271 °C; that for `CN1CCC(Oc2cccc(NC(=O)c3ccncc3)n2)CC1.Cl` (hydrate or solvate) was 254 to 256 °C; that for `CN1CCC(Oc2cccc(NC(=O)c3ccccc3Cl)n2)CC1.Cl` (hydrate or solvate) was 88 to 90 °C.
Same read-out and setting: then `Cl.O=C(Nc1cccc(OC2CCNCC2)n1)c1ccc(F)cc1` (hydrate or solvate), with 251 to 253 °C; and `C[C@H]1C[C@@H](Oc2cccc(NC(=O)c3ccc(F)cc3Cl)c2)CCN1C.Cl` (single isomer, unassigned), with 152 °C; and `C[C@H]1C[C@H](Oc2cccc(NC(=O)c3ccc(F)cc3Cl)c2)CCN1C.Cl` (single isomer, unassigned), with 145 °C.
For the compound `C[C@H]1C[C@H](Oc2cc(NC(=O)c3ccc(F)cc3Cl)ccc2C(C)(C)C)CCN1C.Cl` (single isomer, unassigned), the melting point was 260 °C.
The same measure, in the same setting: then `C[C@H]1CN(C)CC[C@H]1Oc1cccc(NC(=O)C2=CC=C(F)CC2Cl)n1` (single isomer, unassigned) (as salt: salt), with 238 °C; and `C[C@@H]1CN(C)CC[C@@H]1Oc1cccc(NC(=O)C2=CC=C(F)CC2Cl)n1` (single isomer, unassigned) (as salt: salt), with 238 °C.
